# Reference: a melting point compilation (Tetko et al.; mined from patent text by program, amines drawn as free bases though some values may be those of a salt)
row,Structure (SMILES),melting point
1,CC(C)C[C@@H]1NC(=O)[C@@H]1O,141 to 142 °C
2,CCOC(=O)C1=C(C#N)Nc2ccnc(OC(C)C)c2C1c1ccccc1C(F)(F)F (centres undefined),138 to 140 °C
3,CC1(C)OC(=O)Nc2c(O)cc(-c3cc(F)cc(C#N)c3)cc21,197 to 198 °C
4,Cc1c(-c2ccccc2)n(Cc2ccccc2)c2ccc(Br)cc12,113 to 116 °C
5,CCCCCN1N=C(c2ccc3c(c2)N(S(C)(=O)=O)CCO3)CCC1=O,138 to 139 °C
6,Cn1ncnc1COc1nn2c(-c3ccc(F)cc3F)nncc2c1C(C)(C)C,118 °C
7,CC(c1ccccc1)N1CCN(c2nn(C)c3c2Cc2ccccc2-3)CC1 (centres undefined),138 to 139 °C
8,CCOC1=N[C@@H](CSCC)C(=O)N[C@@H]1Cc1ccccc1,118 °C
9,CCOC(=O)C=Cc1ccc(OCC)c([N+](=O)[O-])c1,90 to 92 °C
10,Cn1c2ccc([N+](=O)[O-])cc2c2c3ccccc3c(=O)[nH]c21,> 300 °C
11,CCOC(=O)c1c(Cl)c(CC)c(C)[nH]c1=O,167 °C
12,CC(C)=CC(=O)Nc1ccc2ncnc(Nc3cccc(Br)c3)c2c1,300 to 301 °C
13,CC(C)NC(=O)N1CC(Oc2ccc(C(F)(F)F)cc2)C1,151 to 152 °C
14,CCCn1c(=O)cc(Cl)n(CC#N)c1=O,83 to 84 °C
15,CC(C)NC1=NS(=O)(=O)c2cc(Cl)sc2N1,272 to 274 °C
16,COc1ccc(-c2cc3ncnc(Nc4ccc5[nH]ccc5c4)c3s2)cc1OC,171 to 178 °C
17,CSc1ccc(-c2n[nH]c(C(F)(F)F)c2-c2ccc(F)cc2)cc1,189 to 190 °C
18,CC(=O)c1cc2c(cc1O)CCCC2,70 to 72 °C
19,Clc1cccc(-c2nc(-c3ccc4c(c3)OCO4)c(-c3ccc4c(c3)OCO4)[nH]2)c1Cl,198 °C
20,CCCCN(Cc1ccccc1)CC1CCc2c(C)cc3c(c2C1=O)CCC(=O)N3 (centres undefined),190 to 193 °C
21,Fc1ccc(CNc2nc3ccccc3n2-c2ccc(F)c(F)c2)cc1F,158 to 160 °C
22,COc1ccc(CCNC(=S)Cc2nnnn2C)cc1OC,90 to 92 °C
23,CCOC(=O)c1c(OCC)nsc1NC(=O)N(CC)CC,77 to 80 °C
24,COCOc1cc(NC(=O)OC(C)(C)C)cc2ccccc12,64 to 66 °C
25,CC(C)n1nnc2c(NCc3ccccc3O)nc(N[C@H]3CC[C@H](N)CC3)nc21,120 to 123 °C
26,CCOC(=O)C1(CCCN(C)C)CCCCC1(O)c1ccccc1 (centres undefined),97 to 99 °C

row,Structure (SMILES),melting point
1,CCc1nc2c(N)nc3cc(OCc4ccc(C(=O)OC)o4)ccc3c2s1,184 to 186 °C
2,CCOC(=O)c1cc(-c2ccncc2)c(C(F)(F)F)nc1N,121 to 125 °C
3,Cc1c2c(c(Cc3ccc(C(C)C)cc3)c(C)c1NC(=O)NC(C)(C)C)OCC2,197 to 198 °C
4,O=C(NCCC[C@H]1OC[C@H](c2cccc3cc(OCC4CC4)ccc32)CO1)OCC(F)(F)F,105 to 107 °C
5,O=[N+]([O-])c1ccc(CCCNCCO)cc1,82.5 to 84.5 °C
6,CCCCCC(=O)Nc1ccc2ccn(Cc3ccc(C#N)cc3OC)c2c1,136 to 138 °C
7,c1ccc(-c2cnccn2)cc1,69 to 70 °C
8,Nc1cc(-n2cc(C(=O)O)c(=O)c3cc(F)c(Cl)nc32)ccc1F,> 270 °C
9,COc1cc2ccc(C(=O)O)cc2cc1OC,245 to 247 °C
10,COC(=O)NNC(=O)c1n[nH]c2cc(OC)c(OC)cc12,235 °C
11,NC(=O)c1cn2c(nc1=O)CCC2,277 to 278 °C
12,COc1ccc(C(=O)N(c2ccccc2)c2ccc(OCCCN(C)C)cc2)c(OC)c1,78.5 to 82.5 °C
13,CCOC(=O)CCc1cnc(-c2cc3cccc(N(C)S(=O)(=O)c4cccs4)c3[nH]2)s1,126 to 127 °C
14,C=C1NC(NC(C)CC)=C(C(=O)OCC)C(NN)=C1C#N (centres undefined),120 to 121 °C
15,COc1ccc([C@H]2NC(SC)=N[C@H]2c2ccc(OC)cc2)cc1,132 to 134 °C
16,CCCCNc1c(N)cc(C(=O)O)cc1S(N)(=O)=O,211 to 212 °C
17,COc1ccc(C(=O)Nc2ccncc2)c2c1[nH]c1ccccc12,> 250 °C
18,Nc1cc(-c2noc(-c3cnn4c(C(F)(F)F)cc(-c5ccc(Cl)cc5)nc34)n2)ccn1,252 °C
19,OC(CC1CCNCC1)c1cc(-c2ccccc2)nc2ccccc12 (centres undefined),147 °C
20,Cc1cc(=O)n(C)c2nc(-c3ccncc3)nn12,195 to 197 °C
21,O=S(=O)(c1ccccc1)n1cc(-c2ccnc(N[C@H]3CC[C@H](O)CC3)n2)c2ccccc21,132 to 133 °C
22,CN(C)CCC1CCCCN1C(=O)N1c2ccccc2C(=O)Nc2cccnc21 (centres undefined),188 to 190 °C
23,CCOC(=O)c1ccc2ccccn2c1=O,105 to 109 °C
24,O=C1CN(c2c(F)cc(N3C[C@H](CNC(=S)Nc4ccccn4)OC3=O)cc2F)CN1,194 to 196 °C
25,COc1nc(N)nc2c1CCC2,134 to 135 °C
26,CC1CNc2nc3c(N)nc4ccccc4c3n21 (centres undefined),265 to 273 °C

row,Structure (SMILES),melting point
1,CCOC(=O)CNC(=O)CS(=O)(=O)Nc1ccc(F)c(C(F)(F)F)c1,145 to 147 °C
2,c1nnc2c3c(c(NCCCCN4CCCC4)nn12)CCCC3,158 to 160 °C
3,COc1ccccc1-c1cc(F)cc2c1O[C@@H](CN)CC2,100 °C
4,Cc1c(-c2ccc(OC(F)F)c(OC3CC3)c2)[nH]c2cn[nH]c(=O)c12,245 to 246 °C
5,Cc1cc(C)nc(-n2nc(S(=O)(=O)Nc3c(Cl)cccc3Cl)nc2N)n1,306 to 312 °C
6,CC(C)c1cc(-c2ccc(N)c3ccccc23)nc(N)n1,185 to 186 °C
7,O=[N+]([O-])c1cc(Br)cc(Br)c1,102 to 104 °C
8,Cc1nnc(-c2cnc3occ(-c4ccc(S(C)(=O)=O)cc4)c3c2)o1,251 to 252 °C
9,COc1c(-c2ccccc2)csc1-c1cnn2c(O)ccnc12,234 to 236 °C
10,O=C(O)c1cncc(-c2ccc3c(C(=O)NCC45CC6CC(CC(C6)C4)C5)c(Cl)ccc3n2)c1,247 °C
11,O=S(=O)(c1cccc(F)c1)N1CCCC1c1ccc(F)cc1 (racemic),101 °C
12,COc1cc(C(C)=O)ccc1OCCCN1CCC(C(O)(c2ccc(F)cc2)c2ccc(F)cc2)CC1,142 to 143 °C
13,Cc1cc(Oc2nc(-c3ccccc3)ns2)c(C)cc1N=CN(C)C,100 to 105 °C
14,c1ccc2c(c1)CCC21CCN(CCCCN2CCC3(CCc4ccccc43)CC2)CC1,113 to 115 °C
15,Cc1ccc(Nc2nc3ccccc3c3[nH]c(C4CCCC4)nc23)cc1,125 to 126 °C
16,COc1cc(C(C)(C)C)c(O)c(C(=O)Nc2ccc(S(=O)(=O)C(F)(F)F)cc2Cl)c1C,121 to 122 °C
17,CC(C)C[C@@H](CO)NC(=O)N1C(=O)C(OC(=O)N2CCN(c3ccncc3)CC2)(c2ccccc2OC(C)C)c2cc(Cl)ccc21 (some centres undefined),160 to 164 °C
18,CCCCNc1n[nH]c(C)c1C(=O)OCC,109 to 110 °C
19,CCOC(=O)C=C(C)Nc1ccc2nc[nH]c2c1,160 to 162 °C
20,COC(=O)C(=O)C12CC3CC(CC(O)(C3)C1)C2,164 to 166 °C
21,CO[C@@H](Cc1ccc(OCCc2nc(-c3cc(C)cc(C)c3)oc2C)c2ccccc12)C(=O)O,197 to 198 °C
22,Cc1ccc2c(c1)c1c(n2C(=O)c2ccccc2)CCCC1C(=O)O (centres undefined),149 to 153 °C
23,O=C(C=Cc1ccc(Cl)cc1)C1(Cl)CC1,92 °C
24,Cc1ccccc1C(=O)N[C@@H]1CCc2cccc(N3CCN(C)CC3)c2C1,179 to 180 °C
25,O=C(Nc1ccc(-c2nc(-c3ccco3)no2)c(Cl)c1)Oc1ccccc1,184 to 186 °C
26,O=S(=O)(O)c1nc2cc(Cl)c(Cl)cc2[nH]1,353 to 354 °C

row,Structure (SMILES),melting point
1,CN(C)c1cc2c(cc1C(F)(F)F)NC(=O)CC(c1cccc(-c3ccncc3)c1)=N2,202 °C
2,FC(F)(F)c1cc(N2CCN(Cc3n[nH]c4ccccc34)CC2)cc(C(F)(F)F)c1,155 to 156 °C
3,Cc1cc2c(cc1C(C)SCC(=O)O)OCO2 (centres undefined),93.5 to 94.5 °C
4,COc1ccc(/C=C/c2ccc3c(=O)n(-c4ccccc4)ncc3c2)cc1,198 to 199 °C
5,CCCn1nc2c(N)nc3ccccc3c2c1CC1CCOCC1,218 to 220 °C
6,COc1ccc(-n2cc(C#N)c(=O)[nH]c2=O)c(C)c1,276 to 278 °C
7,CC(C)(C)OC(=O)N1CCC(Cc2cn(S(=O)(=O)c3ccccc3)c3ccc(F)cc23)CC1,155 to 157 °C
8,COc1cc2c(c(Cl)c1Cl)SC(C(C)C)C2O (centres undefined),119 to 123 °C
9,Clc1ncc(Cl)n2ccnc12,102 °C
10,O=C1COc2ccc(C3=Cc4ccc(NCCO)cc4SC3c3ccccc3)cc2N1 (centres undefined),201 to 202 °C
11,O=C(Cc1ccc(Cl)c(Cl)c1)N1CCc2occc2C1CO (centres undefined),155 to 156 °C
12,CC1=C(C(=O)OCCN2C(=O)c3ccccc3C2=O)C(c2cccc([N+](=O)[O-])c2)C(C(=O)OCCN2C(=O)c3ccccc3C2=O)=C(C)N1,92 to 94 °C
13,CCN(CC)CCNC(=O)c1cc(Cl)c(N)cc1OCC(=O)OC,92 to 94 °C
14,CC1(C)CC(=O)Nc2cc3nc(-c4ccncc4)[nH]c3cc21,201 to 202 °C
15,OCc1ccc(-c2ccccc2)s1,91.5 °C
16,O=C(O)C1(C(=O)O)CCOCCOCCOCCOCC1,107 to 111 °C
17,COC1=NC(=O)N(C2CCCCC2)S(=O)(=O)N1,173 to 177 °C
18,CCc1cc(C(=O)c2ccccc2Cl)c(-n2c(C)nnc2COC(=O)c2ccc(Cl)c(Cl)c2)s1,117 to 119 °C
19,CCCCCCCCCCCCCCC(C)C(=O)O (centres undefined),44 to 46 °C
20,COc1cc(N)c(Cl)cc1C(=O)NC1CCN(C(C)CC(C(=O)N(C)C)(c2ccccc2)c2ccccc2)CC1O (centres undefined),132 °C
21,O=[N+]([O-])c1ccc(N=C(NC(=S)NCc2cccnc2)c2ccccc2)cc1,179 to 180 °C
22,COc1ccc2cc(Cc3ccccc3)sc2c1,60 to 61 °C
23,COc1ccc(C(=O)/C=C/c2c(-c3ccc(F)cc3)nc3sccn23)cc1OC,221 to 223 °C
24,NC(=O)c1cc(-c2ccncc2)nnc1Cl,> 300 °C
25,CCC(C)c1ccc(-n2c(-c3cc(C)c(OCCO)c(C)c3)nc3ccc(OC)cc3c2=O)cc1 (centres undefined),152 to 154 °C
26,CCCc1cccc2[nH]c(C(=O)OCC)cc(=O)c12,153 to 154 °C
